One assay has as its target HDAC1 (Homo sapiens, UniProt Q13547). In words: HDAC1 inhibition IC50. The assay is classed as biochemical.
In the next assay the target is HDAC2 (Homo sapiens, UniProt Q92769). Nature of the assay: HDAC2 inhibition IC50. The assay is classed as biochemical.
A further assay has as its target HDAC3 (Homo sapiens, UniProt O15379). In words: HDAC3 inhibition IC50. Type of assay: biochemical.
For assay [1], the system named is hearts from Sprague-Dawley rats. In words: Langendorff isolated heart ischemia-reperfusion model, drug at reperfusion (ex vivo). The conditions noted are these: drug during reperfusion; for left ventricular function (dP/dtmax, dP/dtmin, developed pressure, rate pressure product): 30 min ischemia, 60 min reperfusion, vs drug-free control; for infarct area / viable myocardium (TTC staining): end of 60 min reperfusion. The protocol:
(B) Graphs represent measurements of left ventricular function after 30 minutes of ischemia and 60 minutes of reperfusion. dP/dtmax indicates the rate of pressure development, dP/dtmin indicates the rate of pressure relaxation, Developed Pressure was calculated as the difference between the systolic and diastolic pressures, Rate Pressure Product was calculated as the developed pressure multiplied by the heart rate. Measurements were taken at the end of reperfusion. (C) TTC staining for infarct area at the end of reperfusion; yellow/white region indicates area of infarction. Infarct areas were measured using imageJ software. All data are represented as mean+/−S.D. N=4, t-test *p,0.05.
FIG. 3 provides data showing (A) Confocal fluorescent images of myocytes loaded with LL-66 and Mitotracker Deep Red FM. (B) LV functional measurements taken at the end of 30 minutes ischemia and 60 minutes of reperfusion, represented as a percentage of baseline pre-ischemia function. dP/dtmax indicates the rate of pressure development, dP/dtmin indicates the rate of pressure relaxation, Developed Pressure was calculated as the difference between the systolic and diastolic pressures, Rate Pressure Product was calculated as the developed pressure multiplied by the heart rate. Measurements were taken at the end of reperfusion. (C) TTC staining for infarct at the end of reperfusion; yellow/white region indicates area of infarction. Infarct areas were measured using image) software. (D) Area of Infarction for each of the groups in (C). N=3 for (A), For B-D, All data are represented as mean+/−S.D. N=4 t-test for panel B, one way ANOVA with bonferroni post-test for panel D *p<0.05.
To test whether selective class I HDAC inhibition can postcondition the heart against […], the inventors isolated hearts from Sprague-Dawley rats and perfused them using a constant pressure Langendorff apparatus. After 15 minutes of equilibration, the inventors subjected the hearts to 30 minutes of ischemia, followed by 60 minutes of reperfusion. The selective class I HDAC inhibitor MS-275 was administered throughout the reperfusion phase and compared to drug-free control hearts (FIG. 1A). In order to measure left ventricular functional performance, a saline-filled balloon was inserted into the left ventricle and attached to a pressure transducer. […] At the conclusion of the 60 minute reperfusion period, hearts were removed from the perfusion column and sliced into 2 mm transverse sections using a tissue slicing matrix. Hearts were then incubated in 2,3,5-triphenyltetrazolium chloride ([…]) in order to determine the amount of infarcted myocardium. […]

The subject of assay [2] is isolated adult rat cardiac myocytes. Nature of the assay: Seahorse oxygen consumption rate (OCR) in myocytes, normoxia or simulated hypoxia-reoxygenation. The assay is classed as cell-based. The protocol:
(§1) FCCP was injected at point A and […] injected at point B. (B) Measurements of OCR in isolated myocytes subjected to normoxia (blue) or chemical hypoxia. reoxygenation (red) and reperfused with DMSO (red), MS-275 (pink), or LL-66 (peach). For (A) and (B), top panels are representative, bottom panels are the uncoupled rate as a percentage of baseline rate over 4 runs. (C) Oxyblotting of tissue homogenates from Langendorff hearts subjected to I/R+/−LL-66 or MS-275. Representative seahorse data are represented mean +/−SEM, Bar graphs are represented mean +/−S.D. For all experiments, N-4, one way ANOVA with Dunnet post test *p<0.05, **p<0.01.
Since acetylation is known to regulate the activity of mitochondrial enzymes involved in multiple metabolic pathways, the inventors decided to determine if class I HDAC inhibition affects metabolic activity in cardiac myocytes both at baseline and when subjected to simulated hypoxia-reoxygenation (sI/R). For these experiments, isolated adult rat cardiac myocytes were subjected to chemical hypoxia or normoxia control for 90 minutes, then reperfused in the presence of DMSO vehicle, MS-275, or LL-66 for 60 minutes. At the conclusion of the reperfusion period, myocytes were loaded into a Seahorse extracellular flux analyzer and the oxygen consumption rate (OCR) was analyzed at baseline and in response to FCCP (injection A) and […] (injection B).

For another assay, the system named is Langendorff hearts. Nature of the assay: Oxyblotting of lysates from Langendorff hearts subjected to I/R. Further details: species or system rat. To be noted: I/R hearts +/- drug. The protocol:
as §1
Since acetylation is known to regulate the activity of mitochondrial enzymes involved in multiple metabolic pathways, the inventors decided to determine if class I HDAC inhibition affects metabolic activity in cardiac myocytes both at baseline and when subjected to simulated hypoxia-reoxygenation (sI/R). […] At the conclusion of the reperfusion period, myocytes were loaded into a Seahorse extracellular flux analyzer and the oxygen consumption rate (OCR) was analyzed at baseline and in response to FCCP (injection A) and […] (injection B).

The test system of another assay is SDHA. Nature of the assay: Mass spectrometry of protein acetyl-lysine in I/R hearts treated at reperfusion. The conditions noted are these: for change in SDHA acetylation: I/R hearts, treated at reperfusion, preliminary MS data; for acetylation of SDHA K480: IR with drug treatment. Details: species or system rat. The protocol:
(§2) N=3 per group. (B) Treatment of Langendorff hearts with HDAC inhibitors reduce succinate dehydrogenase activity. SDH activity was measured in tissue lysates from reperfused hearts treated with either MS275 or LL-66 at reperfusion. N=4 per group. (C) SDHA activity was measured in mitochondria isolated from HEK2.93 cells expressing WT, K480Q or K480R mutants. N=4
Samples from I/R hearts treated with LL-66, LL-224, MS-275 and vehicle at reperfusion were prepared for mass spectrometry to detect changes in protein acetyl-lysine. […] The inventors previously proposed to first focus on the lysine corresponding to mouse SDHA K538. […] SDH is unique in that it is the only enzyme that participates both in the Krebs cycle and oxidative phosphorylation in mitochondria. Thirteen acetyl-lysine's have been identified on SDHA but there is no acetylation of SDHB^11*, and SDHA is hyper-acetylated in the Sirt3 knockout mouse. […] HEK293 lowers SDH basal activity^13*, SDH K179 is a target of Sirt3.
(§3) Therefore, since inhibition of the mitochondrial HDAC1 represses SDH activity and. K538 is hyperacetylated in IR when HDAC1 is inhibited, the inventors first proposed to test whether K538 acetylation represses SDH activity. The inventors have made and expressed the mouse WT, K538Q and K538R point mutants of SDHA in HEK293 cells to determine if acetylation of K538 also represses SDH activity. Contrary to what the inventors had hoped the K538Q and K538R SDHA mutants had no difference in SDHA activity from WT SDHA after normalization for expression (data not shown). […] The K480R has WT activity and K.480Q has suppressed SDHA activity (FIG. 5C) when expressed in HEK293 cells.

In the next assay the test system is succinate dehydrogenase. In words: SDH activity in tissue lysates from reperfused Langendorff hearts. To be noted: Langendorff hearts treated at reperfusion. Further details: species or system rat. The protocol: as §2, §3
Where [3] appears, read: at baseline (normoxia), FCCP-uncoupled.
Setting [4] is: following sI/R (90 min chemical hypoxia, 60 min reperfusion with drug).

HDAC1, sequence (Q13547 whole entry, species assumed): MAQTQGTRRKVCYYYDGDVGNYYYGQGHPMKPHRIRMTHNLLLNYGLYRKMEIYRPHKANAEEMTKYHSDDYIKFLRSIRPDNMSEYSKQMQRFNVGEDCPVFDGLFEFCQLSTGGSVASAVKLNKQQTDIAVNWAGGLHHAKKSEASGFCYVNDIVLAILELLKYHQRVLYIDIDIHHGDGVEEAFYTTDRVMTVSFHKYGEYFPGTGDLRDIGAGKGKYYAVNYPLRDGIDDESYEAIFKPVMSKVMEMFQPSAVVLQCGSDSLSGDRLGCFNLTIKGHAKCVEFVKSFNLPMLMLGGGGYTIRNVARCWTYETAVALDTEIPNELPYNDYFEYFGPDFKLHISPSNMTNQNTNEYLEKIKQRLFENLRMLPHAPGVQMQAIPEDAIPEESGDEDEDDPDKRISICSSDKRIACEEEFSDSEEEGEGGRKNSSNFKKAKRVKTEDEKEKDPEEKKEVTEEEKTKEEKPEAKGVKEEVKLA
HDAC3, sequence (O15379 whole entry, species assumed, the tested form may be a part): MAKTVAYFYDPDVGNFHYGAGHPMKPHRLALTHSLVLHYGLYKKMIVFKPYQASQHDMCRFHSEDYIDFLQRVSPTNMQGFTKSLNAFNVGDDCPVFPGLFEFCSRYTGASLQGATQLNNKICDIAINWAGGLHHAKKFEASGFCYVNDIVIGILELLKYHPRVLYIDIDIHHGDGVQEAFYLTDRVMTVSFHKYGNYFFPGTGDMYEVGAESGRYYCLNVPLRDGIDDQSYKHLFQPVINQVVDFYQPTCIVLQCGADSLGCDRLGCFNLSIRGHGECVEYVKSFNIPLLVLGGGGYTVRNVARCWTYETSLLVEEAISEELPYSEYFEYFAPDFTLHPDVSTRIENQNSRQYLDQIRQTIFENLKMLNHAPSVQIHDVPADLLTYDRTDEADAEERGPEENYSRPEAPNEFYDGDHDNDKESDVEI
HDAC3, sequence (Q9Y618 395-489 partner limits assumed, species assumed): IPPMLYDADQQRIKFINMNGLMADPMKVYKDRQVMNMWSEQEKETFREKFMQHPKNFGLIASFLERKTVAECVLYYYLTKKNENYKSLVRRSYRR
HDAC2, sequence (Q92769 whole entry, species assumed): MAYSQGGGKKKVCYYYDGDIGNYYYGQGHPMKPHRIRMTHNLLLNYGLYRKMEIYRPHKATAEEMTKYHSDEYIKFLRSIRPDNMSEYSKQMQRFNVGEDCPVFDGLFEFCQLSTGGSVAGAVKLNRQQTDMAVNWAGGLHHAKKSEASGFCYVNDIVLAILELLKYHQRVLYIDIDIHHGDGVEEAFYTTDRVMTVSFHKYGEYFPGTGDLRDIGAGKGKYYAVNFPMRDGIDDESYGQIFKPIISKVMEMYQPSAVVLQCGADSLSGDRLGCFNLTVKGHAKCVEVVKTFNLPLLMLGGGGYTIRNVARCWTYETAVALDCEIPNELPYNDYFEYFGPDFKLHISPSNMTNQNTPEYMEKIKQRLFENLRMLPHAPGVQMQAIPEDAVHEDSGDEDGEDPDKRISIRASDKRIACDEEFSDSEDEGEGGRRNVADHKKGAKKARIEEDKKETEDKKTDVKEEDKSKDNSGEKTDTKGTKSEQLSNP

`CCCNNC(=O)CCCCCCNC(=O)c1ccccc1-c1c2ccc(=N)cc-2oc2cc(N)ccc12` [LL142, 6-amino-9-(2-((7-oxo-7-(2-propylhydrazinyl)heptyl)carbamoyl)phenyl)-3H-xanthen-3-iminium 2,2,2-trifluoroacetate]: the values for the IC50 against HDAC1, against HDAC2 and against HDAC3 were 111 nM, 460 nM and 6 nM, respectively.
The matching figures for `N=c1ccc2c(-c3ccccc3C(=O)NCCCCCCC(=O)Nc3ccccc3N)c3ccc(N)cc3oc-2c1` [LL45, 2-(7-(2-(6-amino-3iminio-3H-xanthen-9-yl)benzamido)heptanamido) benzenaminium 2,2,2-trifluoroacetate]: 1950 nM, 2460 nM and 55 nM.
On the same counts, the results for `N=c1ccc2c(-c3ccccc3C(=O)NCCCCCC(=O)Nc3ccccc3N)c3ccc(N)cc3oc-2c1` [LL38, 2-(6-(2-(6-amino-3-iminio-3H-xanthen-9-yl)benzamido)hexanamido) benzenaminium 2,2,2-trifluoroacetate] are 1260 nM, 490 nM and 180 nM.
Take `CCCNNC(=O)c1ccc(CNC(=O)CNC(=O)c2ccccc2-c2c3ccc(=N)cc-3oc3cc(N)ccc23)cc1` [LL115, 6-amino-9-(2-((2-oxo-2-((4-(2-propylhydrazine-1-carbonyl)benzyl)amino)ethyl)carbamoyl)phenyl)-3H-xanthen-3-iminium 2,2,2-trifluoroacetate]: the IC50 (commonly the concentration needed to halve the response being measured) was 41 nM against HDAC1, 209 nM at HDAC2 and 5 nM on HDAC3.
Take `Nc1ccccc1NC(=O)c1ccc(CNC(=O)OCc2cccnc2)cc1` [MS-275, reference compound]: in assay [1], the “left ventricular function (dP/dtmax, dP/dtmin, developed pressure, rate pressure product)” value was “significant preservation of multiple parameters of ventricular function” and the “infarct area / viable myocardium (TTC staining)” value was “significantly reduced infarct area”. Also, the “maximal uncoupled OCR” value in assay [2] (setting [3]) is listed as “significantly decreased”. Further, the “maximal uncoupled OCR” value in assay [2] (setting [4]) is reported as “significantly decreased”. Further, in the assay with Langendorff hearts, the “oxidative damage (oxyblotting)” value was “reduction of oxidative damage”. In addition, in the assay with SDHA, the “change in SDHA acetylation” value is listed as “significant changes in acetylation” and the “acetylation of SDHA K480” value is given as “significantly hyperacetylated”. In addition, the “change in acetylation of rat SDHA lysine corresponding to mouse K179” value in the assay on SDHA (IR vs IR+drug) was “not significant”. Moreover, the SDH activity result in the assay with succinate dehydrogenase was “significantly reduced”.
For `N=c1ccc2c(-c3ccccc3C(=O)NCCCCCCCC(=O)Nc3ccccc3N)c3ccc(N)cc3oc-2c1` [LL130, 2-(8-(2-(6-amino-3-iminio-3H-xanthen-9-yl)benzamido)octanamido) benzenaminium 2,2,2-trifluoroacetate], the figures for the IC50 against HDAC1, against HDAC2 and against HDAC3 were 4730 nM, 5170 nM and 152 nM, respectively.
For the molecule `N=c1ccc2c(-c3ccccc3C(=O)NCc3ccc(C(=O)Nc4ccccc4N)cc3)c3ccc(N)cc3oc-2c1` [LL66, 2-(4-((2-(6-amino-3-iminio-3H-xanthen-9-yl)benzamido)methyl)benzamido) benzenaminium 2,2,2-trifluoroacetate], the IC50 amounted to 4020 nM against HDAC1, 3480 nM on HDAC2 and 355 nM at HDAC3. Moreover, the “left ventricular function (dP/dtmax, dP/dtmin, developed pressure, rate pressure product)” value in assay [1] is “same magnitude of LV functional recovery from injury as the non-targeted class I HDAC inhibitor MS-275”. The “infarct area / viable myocardium (TTC staining)” value in assay [1] is “rescued viable myocardium to the same extent as MS-275”. In addition, the “maximal uncoupled OCR” value in assay [2] (setting [3]) and in assay [2] (setting [4]) was “significantly decreased” throughout. Also, the “oxidative damage (oxyblotting)” value with Langendorff hearts is on record as “reduction of oxidative damage”. In the assay with SDHA, the “change in SDHA acetylation” value is reported as “significant changes in acetylation”. The “acetylation of SDHA K480” value in the assay with SDHA is listed as “significantly hyperacetylated”. In addition, in the assay on SDHA (IR with drug vs IR with vehicle), the “acetylation of lysine corresponding to mouse SDHA K538” value was “significantly hyperacetylated”. Further, in the assay with succinate dehydrogenase, the SDH activity entry is on record as “significantly reduced”.
Take `CCCNNC(=O)c1ccc(NC(=O)CNC(=O)c2ccccc2-c2c3ccc(=N)cc-3oc3cc(N)ccc23)cc1` [LL162, 6-amino-9-(2-((2-oxo-2-((4-(2-propylhydrazine-1-carbonyl)phenyl)amino)ethyl)carbamoyl)phenyl)-3H-xanthen-3-iminium 2,2,2-trifluoroacetate]: the IC50 at HDAC1 came out at 124 nM; at HDAC2 it was 468 nM; at HDAC3 it was 7 nM.
As to `CCCNNC(=O)c1ccc(CNC(=O)c2ccccc2-c2c3ccc(=N)cc-3oc3cc(N)ccc23)cc1` [LL65, 6-amino-9-(2-((4-(2-propylhydrazine-1-carbonyl)benzyl)carbamoyl)phenyl)-3H-xanthen-3-iminium 2,2,2-trifluoroacetate], the figures for the IC50 against HDAC1, on HDAC2 and on HDAC3 were 276 nM, 849 nM and 36 nM, respectively.

The record behind these values is patent US10703737B2, “HDAC inhibitors and uses thereof” (MUSC FOUNDATION FOR RESEARCH DEVELOPMENT, priority 2018, dated 2020).
